Reference: patent publication US9487489B2, “Halogen-substituted pyrazole derivatives as pest-control agents” (BAYER CROPSCIENCE AKTIENGESELLSCHAFT, priority 2013, dated 2016)

How the values were obtained:
[1] = system: cattle ticks (Boophilus microplus) Parkhurst strain, SP-resistant; assay: Boophilus microplus dip test (BOOPMI Dip); format: in vivo; details: application rate 100 ppm, assessed after 7 days
Description: B. Boophilus microplus-dip Test (BOOPMI Dip)
Test animals: cattle ticks (Boophilus microplus) Parkhurst strain, SP-resistant
Solvent: dimethyl sulphoxide
10 mg of active compound are dissolved in 0.5 ml of dimethyl sulphoxide. For the purpose of preparing a suitable formulation, the active compound solution is diluted with water to the concentration desired in each case.
This active compound preparation is pipetted into tubes. 8-10 adult engorged female cattle ticks (Boophilus microplus) are transferred into a further tube with holes. The tube is immersed into the active compound formulation, and all ticks are completely wetted. After the liquid has run out, the ticks are transferred on filter discs into plastic dishes and stored in a climate-controlled room.
The activity is assessed after 7 days by laying of fertile eggs. Eggs whose fertility is not visible from the outside are stored in a climate-controlled cabinet until the larvae hatch after about 42 days. An efficacy of 100% means that none of the ticks has laid any fertile eggs; 0% means that all eggs are fertile.

[2] = system: engorged adult female cattle ticks (Boophilus microplus); assay: Boophilus microplus injection test (BOOPMI Inj); format: in vivo; details: application rate 20 μg/animal; injection into abdomen; assessed after 7 days
Outline: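 DMSO solution of compound (1 μl) injected into the abdomen of 5 engorged adult female ticks, which are then held in a climate-controlled room. After 7 days, efficacy is scored from laying of fertile eggs, with unclear eggs kept until larval hatch (~42 days); 100% means no fertile eggs, 0% all fertile.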

[3] = system: adult cat fleas (Ctenocephalides felis); assay: Ctenocephalides felis oral test (CTECFE); format: in vivo; details: application rate 100 ppm in citrated cattle blood; after 2 days
Outline: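 About 20 unfed adult cat fleas fed through parafilm membrane on citrated cattle blood containing compound (DMSO stock diluted in blood to test concentration). Kill % scored after 2 days (100% = all fleas dead).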

[4] = system: L1 larvae of the Australian sheep blowfly (Lucilia cuprina); assay: Lucilia cuprina test (LUCICU); format: in vivo; details: application rate 100 ppm; after 2 days
Outline: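 About 20 L1 larvae placed in a vessel with minced horsemeat plus compound (DMSO concentrate diluted with water to the desired concentration). Kill in % scored after 2 days, 100% meaning all larvae dead.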

[5] = system: adult houseflies (Musca domestica); assay: Musca domestica test (MUSCDO); format: in vivo; details: application rate 100 ppm; after 2 days
Outline: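 Compound dissolved in DMSO and diluted with water to the test concentration, applied with sugar solution on a sponge; 10 adult houseflies per vessel. Mortality scored after 2 days as % kill (100% all dead, 0% none).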

[6] = system: green peach aphid (Myzus persicae); assay: Myzus persicae spray test (MYZUPE); format: in vivo; details: Chinese cabbage leaf discs, after 6 days
Description: G. Myzus persicae-spray Test (MYZUPE)
Solvents: 78 parts by weight of acetone
• 1.5 parts by weight of dimethylformamide Emulsifier: alkylaryl polyglycol ether
To produce a suitable preparation of active compound, 1 part by weight of active compound is dissolved using the stated parts by weight of solvent and made up with water comprising an emulsifier concentration of 1000 ppm until the desired concentration is reached. To produce further test concentrations, the preparation is diluted with emulsifier-containing water.
Discs of Chinese cabbage leaves (Brassica pekinensis) infested by all stages of the green peach aphid (Myzus persicae) are sprayed with an active compound preparation of the desired concentration.
After 6 days, the efficacy in % is determined 100% here means that all of the aphids have been killed; 0% means that no aphids have been killed.

[7] = system: larvae of the mustard beetle (Phaedon cochleariae); assay: Phaedon cochleariae spray test (PHAECO); format: in vivo; details: Chinese cabbage leaf discs, after 7 days
Outline: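 Compound dissolved in acetone/dimethylformamide with alkylaryl polyglycol ether emulsifier, made up in water containing 1000 ppm emulsifier, then diluted to test concentrations and sprayed against mustard beetle larvae. Efficacy (% larvae killed) scored after 7 days.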

[8] = system: caterpillars of the armyworm (Spodoptera frugiperda); assay: Spodoptera frugiperda spray test (SPODFR); format: in vivo; details: maize leaf discs, after 7 days
Outline: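 Maize leaf discs sprayed with compound in acetone/DMF with alkylaryl polyglycol ether emulsifier (1000 ppm) in water, dried, then infested with armyworm caterpillars. Mortality (%) scored after 7 days; 100% = all caterpillars killed, 0% = none killed.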

[9] = system: greenhouse red spider mite (Tetranychus urticae); assay: Tetranychus urticae spray test, OP-resistant (TETRUR); format: in vivo; details: bean leaf discs, after 6 days
Outline: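 Bean leaf discs carrying all stages of OP-resistant Tetranychus urticae were sprayed with compound formulated in acetone/dimethylformamide and diluted in water with 1000 ppm alkylaryl polyglycol ether emulsifier. Mortality (% efficacy, 100% = all mites killed) scored after 6 days.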

[10] = system: adult cat fleas (Ctenocephalides felis); assay: Ctenocephalides felis in vitro contact test with adult cat fleas (T1); details: after 48 h
Outline: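 Test compound was dissolved in acetone p.a. (9 mg per 1 ml) and diluted as needed. 250 μl was spread evenly over the inner walls and floor of a 25 ml test tube by rotating on an orbital shaker for 2 h at 30 rpm. Once the solvent evaporated, 5-10 adult Ctenocephalides felis were added. Tubes were capped with a perforated plastic lid and kept horizontal at room temperature and ambient humidity.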

[11] = system: adult dog ticks (Rhipicephalus sanguineus); assay: Rhipicephalus sanguineus in vitro contact test with adult brown dog ticks (T2); details: after 48 h
Outline: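 Acetone solutions coated onto test tube walls and floor, giving 5 μg/cm^2 at 900 ppm. Five to ten adult ticks held per tube in the dark at room temperature for 48 h, then heated at 45-50° C for up to 5 min; efficacy is the percentage of dead or moribund ticks unable to climb away.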

[12] = logP determination by HPLC on a reversed-phase column (C18), EEC Directive 79/831 Annex V.A8; format: physicochemical; details: HPLC on reversed-phase column (C18), acetonitrile/water with formic acid, EEC Directive 79/831 Annex V.A8
Outline: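 Retention on a C18 reversed-phase column (Zorbax Eclipse Plus, 1.8 micron) was used, eluting with acetonitrile/water, each containing formic acid. The gradient ran from 10% to 95% acetonitrile over 4.25 min, then held 1.25 min, at 55° C and 2.0 ml/min, with MS detection.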

SMILES	efficacy (laying of fertile eggs) [1]	efficacy (laying of fertile eggs) [2]	efficacy (kill in %) [3]	efficacy (kill in %) [4]	efficacy (kill in %) [5]	efficacy in % ([6]; application rate 500 g/ha)	efficacy in % ([7]; application rate 500 g/ha)	efficacy in % ([8]; application rate 500 g/ha)	efficacy in % ([9]; application rate 500 g/ha)	efficacy (dead or moribund fleas) ([10]; application rate 1 μg/cm^2)	efficacy (dead or moribund fleas) ([10]; application rate 5 μg/cm^2)	efficacy (dead or moribund ticks) ([11]; application rate 1 μg/cm^2)	efficacy (dead or moribund ticks) ([11]; application rate 5 μg/cm^2)	logP [12]	efficacy in % ([6]; application rate 100 g/ha)	efficacy in % ([7]; application rate 100 g/ha)	efficacy in % ([8]; application rate 100 g/ha)	efficacy in % ([9]; application rate 100 g/ha)
Cn1cc(NC(=O)c2cc(-c3cnn(-c4c(C(F)(F)F)c(C(F)(F)C(F)(F)F)nn4C)c3)ccc2Cl)cn1 [Ic-166]	100%	100%	100%	100%	100%	90%	100%	100%	100%	100%	100%	100%	100%					
CNC(=O)C1(N(C)C(=O)c2cc(-c3cnn(-c4c(C(F)(F)F)c(C(F)(F)C(F)(F)F)nn4C)c3)ccc2Cl)CC1 [Ic-97]	90%	100%	100%	100%	100%	100%	100%	100%	100%	100%	100%			3.58				
Cn1ccc(NC(=O)c2cc(-c3cnn(-c4c(C(F)(F)F)c(C(F)(F)C(F)(F)F)nn4C)c3)ccc2Cl)n1 [Ic-159]	80%	100%	100%	100%	100%	100%	100%	100%	100%	100%	100%							
Cn1nc(C(F)(F)C(F)(F)F)c(C(F)(F)F)c1-n1cc(-c2ccc(Cl)c(C(=O)N[C@@H]3CCOC3)c2)cn1 [Ic-164]	100%	100%	100%	100%	90%	90%	100%	100%	100%	100%	100%	100%	100%					
CC(C)NC(=O)c1cc(-c2cnn(-c3c(C(F)(F)F)c(C(F)(F)C(F)(F)F)nn3C)c2)ccc1Cl [Ic-113]	100%									100%	100%	80%	100%	4.01	90%	100%	100%	100%
Cn1nc(C(F)(F)F)c(CF)c1-n1cc(-c2ccc(Cl)c(C(=O)NC3CC3)c2)cn1 [Ic-103]	90%	100%	100%	100%	80%							100%	100%	2.89		100%	100%	100%
COCCNC(=O)c1cc(-c2cnn(-c3c(C(F)(F)F)c(C(F)(F)C(F)(F)F)nn3C)c2)ccc1Cl [Ic-139]	100%	100%	100%			100%	100%	100%	100%	100%	100%							
C#CCNC(=O)c1cc(-c2cnn(-c3c(C(F)(F)F)c(C(F)(F)C(F)(F)F)nn3C)c2)ccc1Cl [Ic-109]	100%									100%	100%	100%	100%	3.69	100%	100%	100%	100%
Cn1nc(C(F)(F)C(F)(F)F)c(C(F)(F)F)c1-n1cc(-c2ccc(Cl)c(C(=O)NCC(C)(F)F)c2)cn1 [Ic-80]	80%	100%	100%	100%	100%									4.05	90%	100%	100%	100%
Cn1nc(C(F)(F)C(F)(F)F)c(C(F)(F)F)c1-n1cc(-c2ccc(Cl)c(C(=O)NCC=CCl)c2)cn1 [Ic-112]	100%									100%	100%	100%	100%	4.13	100%		100%	100%
Cn1nc(C(F)(F)C(F)(F)F)c(C(F)(F)F)c1-n1cc(-c2ccc([N+](=O)[O-])c(C(=O)NC3(C#N)CC3)c2)cn1 [Ic-65]	100%	100%	100%	100%	100%					100%	100%			3.48	90%	100%	83%	100%
C=C=CCNC(=O)c1cc(-c2cnn(-c3c(C(F)(F)F)c(C(F)(F)C(F)(F)F)nn3C)c2)ccc1Cl [Ic-111]	100%									100%	100%	100%	100%	4.04	100%	100%	100%	100%
